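Tested at 5 concentrations; 48 h exposure; 96-well plates; endpoints linearly interpolated, else capped at highest concentration. GI50 = concentration required for 50% inhibition of growth.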 Active and inactive are the calls of the source. Rule as the data show it: active = GI50 up to about 1.1 µM and inactive = higher.
What was measured:
Experiment in all cases: DTP human tumour cell line panel, 48 h
[1] = tested on: Malme-3M
[2] = tested on: MCF7
[3] = tested on: A549
[4] = tested on: HL-60
[5] = tested on: HOP-62
[6] = tested on: MDA-N
[7] = tested on: EKVX
[8] = tested on: 786-0
[9] = tested on: UACC-257
[10] = tested on: NCI-H23
[11] = tested on: TK-10
[12] = tested on: NCI/ADR-RES
[13] = tested on: U-251
[14] = tested on: PC-3
[15] = tested on: CCRF-CEM
[16] = tested on: CAKI-1
[17] = tested on: SNB-75
[18] = tested on: SK-MEL-28
[19] = tested on: HOP-92

Measured: GI50

NNC(=O)CCSc1ccccc1
inactive: [1] > 100 µM | [2] > 100 µM | [3] > 100 µM | [4] > 100 µM | [5] > 100 µM | [6] > 100 µM | [7] > 100 µM | [8] > 100 µM | [9] > 100 µM | [10] > 100 µM | [11] > 100 µM | [12] > 100 µM | [13] > 100 µM | [14] > 100 µM | [15] > 100 µM | [16] > 100 µM | [17] > 100 µM | [18] > 100 µM

O=c1c(SSc2coc3cc(F)ccc3c2=O)coc2cc(F)ccc12
inactive: [1] 29.6 µM | [2] 14.6 µM | [3] 7.29 µM | [4] 8.59 µM | [5] 19.8 µM | [6] 13.5 µM | [7] 21.1 µM | [8] 10 µM | [9] 21.8 µM | [10] 25.1 µM | [11] 35.2 µM | [12] 17.3 µM | [13] 21.3 µM | [14] 7.82 µM | [15] 3.58 µM | [16] 20.1 µM | [17] 11 µM | [18] 5.58 µM

CCO[C@H]1C[C@@H](c2ccccc2)[C@]2(C)C[C@H](C(=O)OC)ON2O1
inactive: [1] > 100 µM | [2] > 100 µM | [3] > 100 µM | [4] > 100 µM | [5] > 100 µM | [6] > 100 µM | [7] > 100 µM | [8] > 100 µM | [9] > 100 µM | [10] > 100 µM | [11] > 100 µM | [12] > 100 µM | [13] > 100 µM | [14] > 100 µM | [15] > 100 µM | [16] > 100 µM | [18] > 100 µM | [19] > 100 µM

O=C1C(Cl)=C(Oc2ccc([N+](=O)[O-])cc2)C(=O)c2c(O)ccc(O)c21
inactive: [1] 18.1 µM | [2] 46.1 µM | [3] > 100 µM | [4] 4.65 µM | [5] > 100 µM | [6] 21 µM | [7] > 100 µM | [8] 67.9 µM | [9] > 100 µM | [10] > 57.9 µM | [11] 44.1 µM | [12] > 100 µM | [13] > 100 µM | [14] > 100 µM | [15] 2.12 µM | [17] > 100 µM | [18] > 50.2 µM | [19] 28.3 µM

CC(=O)Oc1ccc2[nH]c3c(C)c4cccc-4ccc3c2c1
inactive: [1] 1.78 µM | [2] 2.65 µM | [3] 2.26 µM | [4] 2.72 µM | [5] 2.29 µM | [6] 2.36 µM | [7] 2.2 µM | [8] 1.85 µM | [9] 1.92 µM | [10] 1.99 µM | [11] 1.87 µM | [12] 2.28 µM | [14] 1.87 µM | [16] 1.86 µM | [18] 2.31 µM | [19] 2.12 µM

CC(=O)OCC1OC(SC2=N/C(=C\c3cc4c(=O)c5ccccc5sc4s3)C(=O)N2c2ccccc2)C(OC(C)=O)C(OC(C)=O)C1OC(C)=O (stereo unspecified)
inactive: [1] > 100 µM | [2] 78.7 µM | [4] 20.1 µM | [5] > 100 µM | [6] > 100 µM | [7] 65 µM | [8] > 100 µM | [9] > 100 µM | [10] > 100 µM | [11] > 100 µM | [12] > 100 µM | [13] 23.9 µM | [14] > 100 µM | [16] > 100 µM | [17] 65.8 µM | [18] > 100 µM

COC(=O)[C@@H]1[C@H](OC(C)=O)CCC2[C@@]3(C[C@@H](c4ccoc4)O[C@@H]3OC)[C@H](C)CC[C@]21C(=O)OC (stereo partly specified)
inactive: [2] > 25 µM | [3] > 25 µM | [4] 19 µM | [6] > 25 µM | [7] > 25 µM | [8] > 25 µM | [9] > 25 µM | [10] > 25 µM | [11] > 25 µM | [12] > 25 µM | [13] > 25 µM | [14] > 25 µM | [15] > 25 µM | [16] > 25 µM | [17] > 25 µM | [19] > 25 µM

COc1ccc2c(c1)[C@@]13CCN4CC5=CCO[C@H]6CC(=O)N2[C@H]1[C@H]6[C@H]5C[C@H]43
inactive: [1] 90.4 µM | [2] > 100 µM | [3] > 100 µM | [4] 18.1 µM | [5] > 100 µM | [6] > 100 µM | [7] 44.4 µM | [8] > 100 µM | [9] > 100 µM | [10] > 100 µM | [11] 76.6 µM | [12] 47.2 µM | [13] > 100 µM | [14] > 100 µM | [15] 88.5 µM | [16] > 100 µM | [18] 80.5 µM | [19] 95.7 µM

O=C1C2SC34c5c2c2ccccc2n5CCC3CCCN14 (stereo unspecified)
inactive: [1] > 100 µM | [2] > 100 µM | [3] > 100 µM | [4] > 100 µM | [5] 31.8 µM | [6] > 100 µM | [7] > 100 µM | [8] 27.5 µM | [9] 15 µM | [10] > 100 µM | [11] 25.9 µM | [12] > 100 µM | [13] 33.9 µM | [14] 54.8 µM | [16] 48.4 µM | [18] > 100 µM | [19] 34.9 µM

NS(=O)(=O)c1ccc(NC(=O)Nc2ccccc2F)cc1
inactive: [1] > 100 µM | [2] > 100 µM | [3] > 100 µM | [4] > 100 µM | [5] > 100 µM | [6] > 100 µM | [7] > 100 µM | [8] > 100 µM | [9] > 100 µM | [10] > 100 µM | [11] > 100 µM | [12] > 100 µM | [13] > 100 µM | [14] > 100 µM | [16] > 100 µM | [17] > 100 µM | [18] > 100 µM | [19] > 100 µM

CS(=O)(=O)Nc1ccc(N2Cc3c[nH]c4ccc5nccc2c5c34)cc1
inactive: [1] 4.54 µM | [2] 8.65 µM | [3] 33.4 µM | [4] 29 µM | [5] 17.5 µM | [6] 15.7 µM | [7] 44.7 µM | [8] 14.3 µM | [9] 14.5 µM | [10] 24.6 µM | [11] 23 µM | [12] > 100 µM | [13] 15.4 µM | [14] 16.1 µM | [15] 7.33 µM | [16] 31.5 µM | [18] 18.9 µM | [19] 12.9 µM

Reference: ChEMBL document CHEMBL1201862, “PubChem BioAssay data set” (2004)
